Tests used:
Format in all cases: in vivo
[1] = tested on: chickweed (Stellaria media); experiment: Test B postemergence plant response
How it was run: (§1)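 Plants at the 1- to 4-leaf stage (2 to 18 cm tall), grown in pots of peat moss/vermiculite medium with wetting agent and starter nutrients, received postemergence applications of test chemicals. After 13 to 15 days in a greenhouse, injury was rated visually against untreated controls on a 0 (no effect) to 100 (complete control) scale.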

[2] = tested on: windgrass (Apera spica-venti); experiment: Test B postemergence plant response; settings: for Plant response rating, Windgrass: Postemergence
How it was run: as §1

[3] = tested on: canarygrass (Phalaris minor); experiment: Test B postemergence plant response
How it was run: as §1

[4] = tested on: pigweed (Amaranthus retroflexus); experiment: Test A pre-/postemergence plant response
How it was run: (§2)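 Both pre- and postemergence treatments are applied simultaneously, using chemicals formulated in a non-phytotoxic solvent mixture with surfactant. Postemergence plants are 2–10 cm high with one to two leaves. After approximately ten days in a greenhouse, injury is scored visually from 0 (none) to 100 (complete control) relative to untreated plants.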

[5] = tested on: giant foxtail (Setaria faberii); experiment: Test A pre-/postemergence plant response
How it was run: as §2

[6] = tested on: large crabgrass (Digitaria sanguinalis); experiment: Test A pre-/postemergence plant response
How it was run: as §2

corn (Zea mays) = experiment: Test A pre-/postemergence plant response
How it was run: as §2

[7] = tested on: velvetleaf (Abutilon theophrasti); experiment: Test A pre-/postemergence plant response
How it was run: as §2

[8] = tested on: morningglory (Ipomoea spp.); experiment: Test A pre-/postemergence plant response
How it was run: as §2

[9] = tested on: barnyardgrass (Echinochloa crus-galli); experiment: Test A pre-/postemergence plant response
How it was run: as §2

[10] = tested on: wheat (Triticum aestivum); experiment: Test A pre-/postemergence plant response
How it was run: as §2

[11] = tested on: ducksalad (Heteranthera limosa); experiment: Test B flooded paddy test; settings: for Plant response rating, Flood, Ducksalad: 250 g ai/ha, flooded paddy test, visual rating on 0 to 100 scale (0 no effect, 100 complete control) after 13 to 15 days; for Plant response rating, Ducksalad: Flood (flooded paddy test), 13 to 15 days; for Ducksalad plant response rating: Flood, 31 g ai/ha, scale 0 to 100 (0 no effect, 100 complete control)
How it was run: (§3)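 2-leaf seedlings; pots flooded 3 cm over soil at treatment; cpd dosed into floodwater, depth kept constant. Greenhouse 13–15 d. Visual rating vs untreated controls, 0 = no effect, 100 = complete control.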

rice (Oryza sativa) = experiment: Test B flooded paddy test; settings: for Plant response rating, Flood, Rice: 250 g ai/ha, flooded paddy test, visual rating on 0 to 100 scale (0 no effect, 100 complete control) after 13 to 15 days; for Plant response rating, Rice: Flood (flooded paddy test), 13 to 15 days; for Rice plant response rating: Flood, 31 g ai/ha, scale 0 to 100 (0 no effect, 100 complete control)
How it was run: as §3

[12] = 31 g ai/ha, postemergence, scale 0 to 100, 0 is no effect, 100 is complete control
[13] = 62 g ai/ha, postemergence, 0 is no effect, 100 is complete control, 13 to 15 days
[14] = Postemergence, 125 g ai/ha, scale 0 to 100 (0 no effect, 100 complete control)
[15] = Postemergence, 250 g ai/ha, scale 0 to 100 (0 no effect, 100 complete control)
[16] = Postemergence, 125 g ai/ha, 0 to 100 scale where 0 is no effect and 100 is complete control
[17] = Postemergence, 500 g ai/ha, 0 to 100 scale, 0 = no effect, 100 = complete control, approx. ten days
[18] = Preemergence, 125 g ai/ha, 0 to 100 scale, 0 = no effect, 100 = complete control
[19] = Preemergence, 500 g ai/ha, visual injury, 0 to 100 scale (0 no effect, 100 complete control), approx. ten days
[20] = 62 g ai/ha, scale of 0 to 100 where 0 is no effect and 100 is complete control
[21] = 125 g ai/ha, scale 0 to 100, 0 is no effect, 100 is complete control
[22] = Postemergence, 31 g ai/ha, 0 to 100 scale (0 no effect, 100 complete control)
[23] = Postemergence, 62 g ai/ha, scale 0 to 100 (0 no effect, 100 complete control)
[24] = Postemergence, 250 g ai/ha, scale 0 to 100 (0 no effect, 100 complete control), 13 to 15 days
[25] = Postemergence, 500 g ai/ha, visual injury, 0 to 100 scale (0 no effect, 100 complete control), approx. ten days
[26] = Preemergence, 500 g ai/ha, 0 to 100 scale, 0 = no effect, 100 = complete control

`CCCn1c(-c2ccc(F)cc2)ncc(C(=O)C2=C(O)CCCC2=O)c1=O` [Compound 102] was tested, and the “Plant response rating, Chickweed” value [1, 12] was 60, the “Chickweed plant response rating (0 to 100 scale)” value [1, 13] was 80 and the “Plant response rating, Chickweed” value [1, 14] was 95. The “Plant response rating, Chickweed” value [1, 15] was 100, the “Windgrass plant response rating (0 to 100 scale)” value [2, 13] was 10 and the “Plant response rating, Windgrass” value ([2]; 125 g ai/ha, scale 0 to 100 (0 no effect, 100 complete control)) was 60. For the same molecule, the “Plant response rating, Canarygrass” value [3, 12] was 5, the “Canarygrass plant response rating (0 to 100 scale)” value [3, 13] was 20 and the “Plant response rating, Canarygrass” value [3, 14] was 30. The “Plant response rating, Canarygrass” value [3, 15] was 50, the “Plant response rating, Pigweed” value [4, 16] was 100 and the “Plant response rating, Pigweed” value [4, 17] was 100. The “Plant response rating, Pigweed” value [4, 18] was 60, the “Plant response rating, Pigweed” value [4, 19] was 100 and the “Plant response rating, Foxtail, Giant” value [5, 16] was 80. For the same molecule, the “Plant response rating, Foxtail, Giant” value [5, 17] was 90, the “Plant response rating, Foxtail, Giant” value [5, 18] was 80 and the “Plant response rating, Foxtail, Giant” value [5, 19] was 100. The “Plant response rating, Crabgrass, Large” value [6, 16] was 90, the “Plant response rating, Crabgrass, Large” value [6, 17] was 100 and the “Plant response rating, Crabgrass, Large” value [6, 18] was 80. The “Plant response rating, Crabgrass, Large” value [6, 19] was 100, the “Plant response rating, Corn” value (corn (Zea mays); [16]) was 0 and the “Plant response rating, Corn” value (corn (Zea mays); [17]) was 20. For the same molecule, the “Plant response rating, Corn” value (corn (Zea mays); [18]) was 0, the “Plant response rating, Corn” value (corn (Zea mays); [19]) was 0 and the “Plant response rating, Velvetleaf” value [7, 16] was 100. The “Plant response rating, Velvetleaf” value [7, 17] was 100, the “Plant response rating, Velvetleaf” value [7, 18] was 80 and the “Plant response rating, Velvetleaf” value [7, 19] was 100. The “Plant response rating, Morningglory” value [8, 16] was 100, the “Plant response rating, Morningglory” value [8, 17] was 100 and the “Plant response rating, Morningglory” value [8, 18] was 80. The “Plant response rating, Morningglory” value [8, 19] was 80, the “Plant response rating, Barnyardgrass” value [9, 16] was 80 and the “Plant response rating, Barnyardgrass” value [9, 17] was 90. For the same molecule, the “Plant response rating, Barnyardgrass” value [9, 18] was 40, the “Plant response rating, Barnyardgrass” value [9, 19] was 90 and the “Plant response rating, Wheat” value [10, 16] was 0. For the same molecule, the “Plant response rating, Wheat” value [10, 17] was 10, the “Plant response rating, Wheat” value [10, 18] was 0 and the “Plant response rating, Wheat” value [10, 19] was 0. For the same molecule, the “Plant response rating, Flood, Ducksalad” value [11] was 85, the “Plant response rating, Ducksalad” value [11, 20] was 40 and the “Plant response rating, Ducksalad” value [11, 21] was 80. For the same molecule, the “Ducksalad plant response rating” value [11] was 30, the “Plant response rating, Flood, Rice” value (rice (Oryza sativa)) was 35 and the “Plant response rating, Rice” value (rice (Oryza sativa); [20]) was 15. For the same molecule, the “Plant response rating, Rice” value (rice (Oryza sativa); [21]) was 20 and the “Rice plant response rating” value (rice (Oryza sativa)) was 10.
For `COc1ccc(-n2c(-c3ccccc3)ncc(C(=O)C3=C(O)CCCC3=O)c2=O)cc1OC` [Compound 218], the “Plant response rating, Chickweed” value [1, 22] was 100, the “Plant response rating, Chickweed” value [1, 23] was 100 and the “Plant response rating, Chickweed” value [1, 14] was 100. For the same molecule, the “Plant response rating, Chickweed” value [1, 24] was 100, the “Plant response rating, Windgrass” value ([2]; 31 g ai/ha, 0 to 100 scale (0 no effect, 100 complete control)) was 10 and the “Plant response rating, Windgrass” value ([2]; 62 g ai/ha, scale 0 to 100 (0 no effect, 100 complete control)) was 20. For the same molecule, the “Plant response rating, Windgrass” value ([2]; 250 g ai/ha, scale 0 to 100 (0 no effect, 100 complete control), 13 to 15 days) was 45, the “Plant response rating, Canarygrass” value [3, 22] was 0 and the “Plant response rating, Canarygrass” value [3, 23] was 0. The “Plant response rating, Canarygrass” value [3, 14] was 0, the “Plant response rating, Canarygrass” value [3, 24] was 5 and the “Plant response rating, Pigweed” value [4, 16] was 100. The “Pigweed plant response rating” value [4, 25] was 100, the “Plant response rating, Pigweed” value [4, 18] was 20 and the “Plant response rating, Pigweed” value [4, 26] was 90. The “Plant response rating, Foxtail, Giant” value [5, 16] was 40, the “Foxtail, Giant plant response rating” value [5, 25] was 70 and the “Plant response rating, Foxtail, Giant” value [5, 18] was 0. For the same molecule, the “Plant response rating, Foxtail, Giant” value [5, 26] was 50, the “Plant response rating, Crabgrass, Large” value [6, 16] was 20 and the “Crabgrass, Large plant response rating” value [6, 25] was 70. The “Plant response rating, Crabgrass, Large” value [6, 18] was 10, the “Plant response rating, Crabgrass, Large” value [6, 26] was 80 and the “Plant response rating, Corn” value (corn (Zea mays); [16]) was 0. The “Corn plant response rating” value (corn (Zea mays); [25]) was 70, the “Plant response rating, Corn” value (corn (Zea mays); [18]) was 0 and the “Plant response rating, Corn” value (corn (Zea mays); [26]) was 0. For the same molecule, the “Plant response rating, Velvetleaf” value [7, 16] was 100, the “Velvetleaf plant response rating” value [7, 25] was 100 and the “Plant response rating, Velvetleaf” value [7, 18] was 50. For the same molecule, the “Plant response rating, Velvetleaf” value [7, 26] was 90, the “Plant response rating, Morningglory” value [8, 16] was 80 and the “Morningglory plant response rating” value [8, 25] was 100. The “Plant response rating, Morningglory” value [8, 18] was 0, the “Plant response rating, Morningglory” value [8, 26] was 80 and the “Plant response rating, Barnyardgrass” value [9, 16] was 80. The “Barnyardgrass plant response rating” value [9, 25] was 90, the “Plant response rating, Barnyardgrass” value [9, 18] was 20 and the “Plant response rating, Barnyardgrass” value [9, 26] was 100. For the same molecule, the “Plant response rating, Wheat” value [10, 16] was 0, the “Wheat plant response rating” value [10, 25] was 0 and the “Plant response rating, Wheat” value [10, 18] was 0. The “Plant response rating, Wheat” value [10, 26] was 0, the “Plant response rating, Flood, Ducksalad” value [11] was 95 and the “Plant response rating, Ducksalad” value [11, 20] was 80. For the same molecule, the “Plant response rating, Ducksalad” value [11, 21] was 85, the “Ducksalad plant response rating” value [11] was 75 and the “Plant response rating, Flood, Rice” value (rice (Oryza sativa)) was 15. For the same molecule, the “Plant response rating, Rice” value (rice (Oryza sativa); [20]) was 0, the “Plant response rating, Rice” value (rice (Oryza sativa); [21]) was 10 and the “Rice plant response rating” value (rice (Oryza sativa)) was 0.

Reference: US8952024B2, “Herbicidal pyrimidone derivatives” (E I du Pont de Nemours and Company, priority 2009, dated 2015)
